Experimental data: patent US8835390B2, “Modulation of osteoclast differentiation” (Osteobuild Ltd., priority 2005, dated 2014)

How the values were obtained:
[1] = tested on: osteoclast lineage cells (osteoclasts and their mononuclear precursors); test: RANKL-induced osteoclast differentiation (osteoclast number by TRAP staining, cell size by surface area measurement); assay type: cell-based, mouse; settings: for osteoclast lineage cells size: phloretin 50 μM added for the last day, mean ± SEM of at least 50 cells
Protocol: (§1) Bone marrow cells (BMMs) were prepared from the long bones of 7-9 week old BALB/c male mice. Primary BMMs were prepared by flushing mouse femurs and tibias with α-MEM. Cells were cultured in Petri dishes, in complete α-MEM, supplemented with 10% CMG14-12 culture supernatant, which served as a source of M-CSF. After 3 days of culture, plates were washed 3 to 4 times with PBS to remove non-adherent cells. Adherent cells were removed with trypsin-EDTA solution, centrifuged and resuspended in a fresh medium. Murine macrophage-like RAW264.7 cell line was maintained in RPMI 1640 medium supplemented with 10% fetal calf serum (FCS) in the presence of antibiotics (penicillin and streptomycin). Cells were cultured at 37° C. incubator in a humidified atmosphere with 5% CO2, and media were changed every other day. BMMs (7×10^3/well in α-MEM containing 10% FCS and supernatant from CMG14-12 [1:20]) or RAW264.7 cells (3×10^3/well in RPMI-1640 containing 10% FCS) were incubated in 96-well plates (0.2 ml/well). To induce cells to differentiate into osteoclasts, bacterially-produced recombinant RANKL was added at the time of plating. On day 3, medium was changed and on day 5, osteoclast formation was evaluated (see below). A commercial kit (Cat. No. 387-A, Sigma) was used according to the manufacturer instructions. TRAP-positive cells containing three or more nuclei were scored as osteoclasts. The surface area occupied by osteoclasts and their precursors was quantified using a computerized image analysis system (Olympus BX50, DP50, software: ImagePro Plus, Media Cybernetics). In the following assay the significance of the activity of AQP-9 to osteoclast differentiation was determined.

bone marrow cells (BMMs) = test: Methylene blue uptake; assay type: cell-based, mouse; settings: FIG. 5
Protocol: as §1, with “To induce cells to differentiate into osteoclasts, bacterially-produced recombinant RANKL was added at the time of plating.” left out, “below).” for “below). A commercial kit (Cat. No. 387-A, Sigma) was used according to the manufacturer instructions. TRAP-positive cells containing three or more nuclei were scored as osteoclasts. The surface area occupied by osteoclasts and their precursors was quantified using a computerized image analysis system (Olympus BX50, DP50, software: ImagePro Plus, Media Cybernetics). In the following assay the significance of the activity of AQP-9 to osteoclast differentiation was determined.”
Cells were seeded as for the osteoclast differentiation assay (see above). Monolayers were fixed and methylene blue uptake was measured as described [Goldman, R., and Bar-Shavit, Z. (1979) J. Natl. Cancer Inst. […]

## O=C(CCc1ccc(O)cc1)c1c(O)cc(O)cc1O [Phloretin, 2′,4′,6′-Trihydroxy-3-(4-hydroxyphenyl)-propiophenone]
[1]; +RANKL for 5 days
  osteoclast lineage cells size: 23722 ± 4351 μm^2
[1]; +RANKL for 5 days, phloretin added for the last day, FIG. 4A-4D
  effect on osteoclast number: dramatic reduction
[1]; +RANKL for 5 days, phloretin added for the last day, FIG. 4A-4D, Table 3
  effect on osteoclast size: dramatic reduction
[1]; cells not treated with RANKL
  effect on number of the mononuclear precursors: did not exhibit a significant effect
  effect on size of the mononuclear precursors: did not exhibit a significant effect
[1]; −RANKL (mononuclear precursors)
  osteoclast lineage cells size: 267 ± 6 μm^2
Bone marrow cells (BMMs); RANKL-treated cells
  effect on methylene blue uptake: marked inhibition
Bone marrow cells (BMMs); mononuclear precursors (BMMs grown in the absence of RANKL)
  effect on methylene blue uptake: No effect
